Test results: article PMC6201195, “The Xylulose 5-Phosphate/Phosphate Translocator Supports Triose Phosphate, but Not Phosphoenolpyruvate Transport Across the Inner Envelope Membrane of Plastids in Arabidopsis thaliana Mutant Plants” (Frontiers in Plant Science, 2018)

T1: XPT (xylulose 5-phosphate/phosphate translocator) (Arabidopsis thaliana, UniProt Q9LF61)
T1 construct: full-length XPT cDNA, His-tag (pYES-DEST52), expressed in Saccharomyces cerevisiae InvSC; yeast membranes reconstituted into proteoliposomes, tag kept
T1 sequence (Q9LF61 1-417 limits assumed): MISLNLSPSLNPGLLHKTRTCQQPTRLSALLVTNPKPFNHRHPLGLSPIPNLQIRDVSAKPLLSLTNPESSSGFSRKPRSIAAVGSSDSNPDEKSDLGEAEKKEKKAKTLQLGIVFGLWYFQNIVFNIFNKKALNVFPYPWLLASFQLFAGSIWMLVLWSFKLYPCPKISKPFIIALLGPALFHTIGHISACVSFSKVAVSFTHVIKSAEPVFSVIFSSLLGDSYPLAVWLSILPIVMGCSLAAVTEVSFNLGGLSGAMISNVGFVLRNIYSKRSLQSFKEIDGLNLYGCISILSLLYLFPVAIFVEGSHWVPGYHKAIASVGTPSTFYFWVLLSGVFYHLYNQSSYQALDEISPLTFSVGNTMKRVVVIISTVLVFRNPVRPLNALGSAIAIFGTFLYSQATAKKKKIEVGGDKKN


What was measured:
[1] = target: T1, XPT (xylulose 5-phosphate/phosphate translocator); experiment: inhibition of homologous […]/[…] exchange in proteoliposomes with reconstituted yeast membranes; format: biochemical; conditions: external pH 7.0; 0.14 mM 32Pi; hyperbolic fit; alternative transport substrate
[2] = substrate: O=P(O)(O)O; experiment: cells, lysate or membranes; conditions: external pH 7.0, internal pH 7.8; counter-exchange; labelled compound

| Molecule | Ki(app) [1] [mM] | Km [2] [µM] |
| --- | --- | --- |
| C=C(OP(=O)(O)O)C(=O)O [PEP] | 3.76 ± 0.39 |  |
| XPT (xylulose 5-phosphate/phosphate translocator) (Arabidopsis thaliana) (protein) MISLNLSPSLNPGLLHKTRTCQQPTRLSALLVTNPKPFNHRHPLGLSPIPNLQIRDVSAKPLLSLTNPESSSGFSRKPRSIAAVGSSDSNPDEKSDLGEAEKKEKKAKTLQLGIVFGLWYFQNIVFNIFNKKALNVFPYPWLLASFQLFAGSIWMLVLWSFKLYPCPKISKPFIIALLGPALFHTIGHISACVSFSKVAVSFTHVIKSAEPVFSVIFSSLLGDSYPLAVWLSILPIVMGCSLAAVTEVSFNLGGLSGAMISNVGFVLRNIYSKRSLQSFKEIDGLNLYGCISILSLLYLFPVAIFVEGSHWVPGYHKAIASVGTPSTFYFWVLLSGVFYHLYNQSSYQALDEISPLTFSVGNTMKRVVVIISTVLVFRNPVRPLNALGSAIAIFGTFLYSQATAKKKKIEVGGDKKN |  | 400 ± 70 |
